Laboratory results from patent US9216215B2, “Adjuvant system for vaccine adjuvant” (VAXFORM LLC, priority 2010, dated 2015).

Columns and labels:
[1] = Linkage of CTL receptor agonist to aluminum adjuvant (FIG. 2); assay type: physicochemical; conditions: aluminum oxyhydroxide
Description: However, monosaccharides can be modified by a chemical group including but not limited to fluoride, phosphate, sulfate, or carbonate group which permits a ligand exchange linkage of the molecule to the aluminum-containing adjuvant. Method for modifying saccharides by addition of fluoride, phosphate, sulfate, or carbonate groups is well known in the art (Cantos, et al. Biochem. J. (1993) 289: 155-160; Carbohydrate Chemistry, Royal Society of Chemistry, Ed. R D Guthrie (1968)). This is illustrated in FIG. 2 utilizing mannose as the CTL receptor agonist and aluminum oxyhydroxide. […] However, addition of a phosphate group at the 1 position of mannose (MIP) results in approximately 100% linkage of the CTL agonist to the aluminum adjuvant.
Another method to the increased avidity of the saccharide for the aluminum adjuvant particle is polymerization. For instance the avidity of the saccharide for the aluminum adjuvant particle may be increased by increasing the size of the saccharide by polymerization to produce a polysaccharide. The increase avidity for the aluminum adjuvant is due to the larger number of interactions of a polysaccharide as compared to a monosaccharide to allow for the stable linkage of the polysaccharide agonist to the aluminum adjuvant particle. […]

[2] = Stability of CTL agonist linkage to aluminum oxyhydroxide on exposure to phosphate (FIG. 3A, 3B); assay type: physicochemical; conditions: 50 mM phosphate pH 7.4 for 30 minutes, absence of antigen
Description: It is important to maintain the stability of the CTL agonist linkage to the aluminum particle upon exposure to body fluid following administration. Components of interstitial fluid such as phosphate, citrate, and protein have the potential to remove the linkage of the CTL agonist with aluminum-containing adjuvants. The resulting soluble CTL agonist may adversely impact the immune response. FIG. 3A illustrates that MIP as well as mannan maintain approximately 100% linkage with aluminum oxyhydroxide when exposed to 50 mM phosphate pH 7.4 for 30 minutes in the absence of antigen.

O=P(O)(O)OC1O[C@H](CO)[C@@H](O)[C@H](O)[C@@H]1O (stereo partly shown) [MIP, Mannose-1-phosphate]
linkage of the CTL agonist to the aluminum adjuvant [1]: approximately 100% | linkage with aluminum oxyhydroxide maintained [2]: approximately 100%

mannan
linkage of the CTL agonist to the aluminum adjuvant [1]: approximately 100% | linkage with aluminum oxyhydroxide maintained [2]: approximately 100%
